Patent US20100105722A1, “Substituted 4,5,6,7-tetrahydrothienopyridines as KCNQ2/3 Modulators” (GRUENENTHAL GmbH, priority 2008, published 2010)
Read-outs that look alike come from different tables or passages of the source.

Molecular target: T1, hKCNQ2/3 (Homo sapiens, UniProt O43525+O43526)
T1 construct: expressed in transfected cells; host or cells: CHO-K1
Experiment: Fluorescence assay using a voltage sensitive dye (fluorimetry)
Format: cell-based
Conditions: for Fluorimetry % Efficacy @ 10 μM (reti-gabine = 100%) / Emax at 10 µM: relative to retigabine = 100%
Procedure: Fluorescence Assay using a Voltage Sensitive Dye
Human CHO-K1 cells expressing KCNQ2/3 channels are cultivated adherently at 37° C., 5% CO2 and 95% humidity in cell culture bottles (e.g. 80 cm^2 TC flasks, Nunc) with DMEM-high glucose (Sigma Aldrich, D7777) including 10% FCS (PAN Biotech, e.g. 3302-P270521) or alternatively MEM Alpha Medium (1×, liquid, Invitrogen, #22571), 10% fetal calf serum (FCS) (Invitrogen, #10270-106, heat-inactivated) and the necessary selection antibiotics.
Before being sown out for the measurements, the cells are washed with a 1×DPBS buffer without Ca^2+/Mg^2+ (e.g. Invitrogen, #14190-094) and detached from the bottom of the culture vessel by means of Accutase (PAA Laboratories, #L11-007) (incubation with Accutase for 15 min at 37° C.). The cell count then present is determined using a CASY™ cell counter (TCC model, Schärfe System) in order subsequently to apply, depending on the density optimization for the individual cell line, 20,000-30,000 cells/well/100 μl of the described nutrient medium to 96-well measuring plates of the Corning™ CellBIND™ type (Flat Clear Bottom Black Polystyrene Microplates, #3340). Incubation is then carried out for one hour at room temperature, without gassing or adjusting the humidity, followed by incubation for 24 hours at 37° C., 5% CO2 and 95% humidity.
The voltage-sensitive fluorescent dye from the Membrane Potential Assay Kit (Red™ Bulk format part R8123 for FLIPR, MDS Analytical Technologies™) is prepared by dissolving the contents of a vessel Membrane Potential Assay Kit Red Component A in 200 ml of extracellular buffer (ES buffer, 120 mM NaCl, 1 mM KCl, 10 mM HEPES, 2 mM CaCl2, 2 mM MgCl2, 10 mM glucose; pH 7.4). After removal of the nutrient medium, the cells are washed with 200 μl of ES buffer, then covered with a layer of 100 μl of the dye solution prepared above and incubated for 45 min at room temperature with the exclusion of light.
The fluorescence measurements are carried out with a BMG Labtech FLUOstar™, BMG Labtech NOVOstar™ or BMG Labtech POLARstar™ instrument (525 nm excitation, 560 nm emission, Bottom Read mode). After incubation of the dye, 50 μl of the test substances in the desired concentrations, or 50 μl of ES buffer for control purposes, are introduced into separate cavities of the measuring plate and incubated for 30 min at room temperature while being shielded from light. The fluorescence intensity of the dye is then measured for 5 min and the fluorescence value F1 of each well is thus determined at a given, constant time. 15 μl of a […] KCl solution ([…]) are then added to each well. The change in fluorescence is subsequently measured until all the relevant measured values have been obtained (mainly 5-30 min). At a given time after KCl application, a fluorescence value F2 is determined, in this case at the time of the fluorescence peak.
For calculation, the fluorescence intensity F2 is compared with the fluorescence intensity F1, and the agonistic activity of the target compound on the potassium channel is determined therefrom. F2 and F1 are calculated as follows: […]
In order to determine whether a substance has agonistic activity, […]
for example, can be compared with […]
is determined by adding to the reaction batch only the buffer solution instead of the test substance, determining the value F1K of the fluorescence intensity, adding the potassium ions as described above, and measuring a value F2K of the fluorescence intensity. F2K and F1K are then calculated as follows: […]
A substance has an agonistic activity on the potassium channel when […]
Independently of the comparison of […]
it is possible to conclude that a target compound has agonistic activity if an increase in […]
is to be observed as the dosage of the target compound increases.
Calculations of EC50 and IC50 values are carried out with the aid of ‘Prism v4.0’ software (GraphPad Software™).

[1] = 10 μM, CHO-K1 cells expressing KCNQ2/3, Table 3
[2] = CHO-K1 cells expressing KCNQ2/3, Table 3
[3] = CHO-K1, 10 μM, CHO-K1 cells expressing KCNQ2/3, Table 3, read-out: Fluorimetry % Efficacy @ 10 μM (reti-gabine = 100%)

Row | Structure (SMILES) | Emax at 10 µM [3] [%] | EC50 [2] [nM] | other results
1 | O=C(NCc1cccc(C(F)(F)F)c1)C1CCCCC1C(=O)N1CCc2sccc2C1c1ccccc1 (mixture of isomers) [compound 31] |  |  | Fluorimetry % Efficacy @ 10 μM (reti-gabine = 100%) [1]: −44%; IC50 [2]: 250 nM
2 | O=C(CCC(=O)N1CCn2cccc2C1c1cccs1)NCc1cccc(C(F)(F)F)c1 (stereo not shown) [Example No. 76 of WO 2008/046582, reference compound] |  |  | Emax at 10 µM (10 μM, comparison experiments table, read-out: Fluorimetry % Efficacy @ 10 μM (retigabine = 100%)): 113%; EC50 (comparison experiments table): 3290 nM
3 | O=C(CCC(=O)N1CCc2ccsc2C1c1ccccc1)NCc1cccc(C(F)(F)F)c1 (stereo not shown) [compound 9] | 110 | 407 | 
4 | O=C(CCC(=O)N1CCc2sccc2C1c1ccccc1)NCc1ccc(C(F)(F)F)cc1 (stereo not shown) [compound 13] | 51 | 375 | 
5 | COc1ccccc1CNC(=O)CCC(=O)N1CCc2sccc2C1c1ccccc1 (stereo not shown) [compound 14] | -54 |  | 
6 | COc1cccc(CNC(=O)CCC(=O)N2CCc3sccc3C2c2ccccc2)c1 (stereo not shown) [compound 15] | -46 |  | 
7 | COc1ccc(CNC(=O)CCC(=O)N2CCc3sccc3C2c2ccccc2)cc1 (stereo not shown) [compound 16] | 21 |  | 
8 | O=C(CCC(=O)N1CCc2sccc2C1c1ccccc1)NCc1cccc(F)c1 (stereo not shown) [compound 18] | 11 | 2180 | 
9 | Cc1cccc(CNC(=O)CCC(=O)N2CCc3sccc3C2c2ccccc2)c1 (stereo not shown) [compound 19] | -45 |  | 
10 | O=C(CCC(=O)N1CCc2sccc2C1c1ccccc1)NCCc1ccccc1 (stereo not shown) [compound 25] | 12 |  | 
11 | Cc1ccccc1CNC(=O)CCC(=O)N1CCc2sccc2C1c1ccccc1 (stereo not shown) [compound 26] | -20 |  | 
12 | O=C(NCc1cccc(C(F)(F)F)c1)C(CC(=O)N1CCc2sccc2C1c1ccccc1)c1ccccc1 (stereo not shown) [compound 27] | 119 | > 404 | 
13 | C[C@H](CC(=O)N1CCc2sccc2C1c1ccccc1)C(=O)NCc1cccc(C(F)(F)F)c1 (stereo partly shown) [compound 28] | 106 | 540 | 
14 | O=C(CC(C(=O)N1CCc2sccc2C1c1ccccc1)c1ccccc1)NCc1cccc(C(F)(F)F)c1 (stereo not shown) [compound 29] | -45 |  | IC50 [2]: 133 nM
15 | O=C(CC(C(=O)N1CCc2sccc2C1)c1ccccc1)NCc1cccc(C(F)(F)F)c1 (stereo not shown) [compound 30] | -101 |  | IC50 [2]: 212 nM
16 | O=C(NCc1cccc(C(F)(F)F)c1)C1CCCCC1C(=O)N1CCc2sccc2C1c1ccccc1 (stereo not shown) [compound 32] |  | 414 | Fluorimetry % Efficacy @ 10 μM (reti-gabine = 100%) [1]: 110%
17 | C[C@H](CC(=O)NCc1cccc(C(F)(F)F)c1)C(=O)N1CCc2sccc2C1c1ccccc1 (stereo partly shown) [compound 34] | 179 | 628 | 
18 | O=C(CCC(=O)N1CCc2sccc2C1c1ccccc1)NCc1cccc(C(F)(F)F)c1F (stereo not shown) [compound 40] |  | 156 | 

Row | Structure (SMILES) | Emax at 10 µM [3] [%] | EC50 [2] [nM] | other results
19 | O=C(CCC(=O)N1CCc2sccc2C1c1ccccc1)NCc1cc(F)cc(C(F)(F)F)c1 (stereo not shown) [compound 41] |  | 261 | 
20 | Cc1scc2c1CCN(C(=O)CCC(=O)NCc1cccc(C(F)(F)F)c1)C2c1ccccc1 (stereo not shown) [compound 45] | 39 | 311 | 
21 | COc1ccc(NC(=O)CCC(=O)N2CCc3sccc3C2c2ccc(C)cc2)cc1 (stereo not shown) [compound 46] | 35 |  | 
22 | Cc1ccc(C2c3ccsc3CCN2C(=O)CCC(=O)Nc2ccc3cnn(C)c3c2)cc1 (stereo not shown) [compound 47] | 37 |  | 
23 | Cc1ccc(C2c3ccsc3CCN2C(=O)CCC(=O)NCc2ccccc2)cc1 (stereo not shown) [compound 48] | -15 |  | 
24 | Cc1ccc(C2c3ccsc3CCN2C(=O)CCC(=O)NCCc2ccccc2)cc1 (stereo not shown) [compound 49] | 38 |  | 
25 | Cc1ccc(C2c3ccsc3CCN2C(=O)CCC(=O)NCc2ccncc2)cc1 (stereo not shown) [compound 50] | 10 |  | 
26 | Cc1ccc(C2c3ccsc3CCN2C(=O)CCC(=O)NCCCc2ccccc2)cc1 (stereo not shown) [compound 51] | 38 |  | 
27 | Cc1cccc(C2c3ccsc3CCN2C(=O)CCC(=O)Nc2cccc3nsnc23)c1 (stereo not shown) [compound 52] | 15 |  | 
28 | Cc1cccc(C2c3ccsc3CCN2C(=O)CCC(=O)Nc2ccc3cnn(C)c3c2)c1 (stereo not shown) [compound 53] | 28 |  | 
29 | Cc1cccc(C2c3ccsc3CCN2C(=O)CCC(=O)NCc2ccccn2)c1 (stereo not shown) [compound 54] | 19 |  | 
30 | O=C(CCC(=O)N1CCc2sccc2C1c1ccccc1)NCCC1CCCCC1 (stereo not shown) [compound 245] |  | 690 | 
31 | O=C(CCC(=O)N1CCc2sccc2C1c1ccccc1)NCC1CCCCC1 (stereo not shown) [compound 247] |  | 1440 | 
32 | Cc1ccc(CNC(=O)CCC(=O)N2CCc3sccc3C2c2ccccc2)cc1C(F)(F)F (stereo not shown) [compound 249] |  | 347 | 
33 | O=C(CCC(=O)N1CCc2sccc2C1c1ccccc1)NCc1ccc(F)c(C(F)(F)F)c1 (stereo not shown) [compound 250] |  | 517 | 
34 | Cc1ccccc1C1c2ccsc2CCN1C(=O)CCC(=O)NCc1ccccc1C(F)(F)F (stereo not shown) [compound 256] |  | 90 | 
35 | Cc1ccccc1C1c2ccsc2CCN1C(=O)CCC(=O)NCc1ccc(C(F)(F)F)cc1 (stereo not shown) [compound 257] |  | 547 | 

Second part, led by results:

Row | Emax at 10 µM [3] [%] | EC50 [2] [nM] | Structure (SMILES) | other results
36 | 102 | 456 | Cc1cccc(C2c3ccsc3CCN2C(=O)CCC(=O)NCc2cccc(C(F)(F)F)c2)c1 (stereo not shown) [compound 4] | 
37 | 61 | > 1660 | Cc1ccc(C2c3ccsc3CCN2C(=O)CCC(=O)NCc2cccc(C(F)(F)F)c2)cc1 (stereo not shown) [compound 5] | 
38 | 133 | 284 | O=C(CCC(=O)N1CCc2sccc2C1c1ccccc1F)NCc1cccc(C(F)(F)F)c1 (stereo not shown) [compound 6] | 
39 | 132 | 348 | O=C(CCC(=O)N1CCc2sccc2C1c1ccc(F)cc1)NCc1cccc(C(F)(F)F)c1 (stereo not shown) [compound 7] | 
40 | 121 | 382 | Cc1cc2c(s1)CCN(C(=O)CCC(=O)NCc1cccc(C(F)(F)F)c1)C2c1ccccc1 (stereo not shown) [compound 10] | 
41 | 54 | 722 | Cc1csc2c1C(c1ccccc1)N(C(=O)CCC(=O)NCc1cccc(C(F)(F)F)c1)CC2 (stereo not shown) [compound 20] | 
42 | 148 | 324 | O=C(CCC(=O)N1CCc2sccc2C1C1CCCCC1)NCc1cccc(C(F)(F)F)c1 (stereo not shown) [compound 21] | 
43 | 139 | 1220 | CC(C)C1c2ccsc2CCN1C(=O)CCC(=O)NCc1cccc(C(F)(F)F)c1 (stereo not shown) [compound 22] | 
44 | 146 | 947 | CCCCC1c2ccsc2CCN1C(=O)CCC(=O)NCc1cccc(C(F)(F)F)c1 (stereo not shown) [compound 23] | 
45 |  | 572 | O=C(CCC(=O)N1CCc2sccc2C1c1ccccc1)NCc1cccc(C(F)(F)F)c1 (stereo not shown) [compound 35] | 
46 |  | 707 | O=C(CCC(=O)N1CCc2sccc2C1c1ccccc1)NCc1cccc(C(F)(F)F)c1 (stereo not shown) [compound 36] | 
47 |  | 131 | CCc1ccccc1C1c2ccsc2CCN1C(=O)CCC(=O)NCc1cccc(C(F)(F)F)c1 (stereo not shown) [compound 251] | 
48 |  | 1010 | CC(C)c1ccccc1C1c2ccsc2CCN1C(=O)CCC(=O)NCc1cccc(C(F)(F)F)c1 (stereo not shown) [compound 252] | 
49 |  | 211 | Cc1ccsc1C1c2ccsc2CCN1C(=O)CCC(=O)NCc1cccc(C(F)(F)F)c1 (stereo not shown) [compound 254] | 
50 |  | 306 | CCCCC1c2sccc2CCN1C(=O)CCC(=O)NCc1cccc(C(F)(F)F)c1 (stereo not shown) [compound 258] | 
51 |  | 84 | O=C(CCC(=O)N1CCc2sccc2C1CCc1ccccc1)NCc1cccc(C(F)(F)F)c1 (stereo not shown) [compound 261] | 
52 |  | 166 | Cc1cc(F)ccc1C1c2ccsc2CCN1C(=O)CCC(=O)NCc1cccc(C(F)(F)F)c1 (stereo not shown) [compound 262] | 
